Test results published in DBAASP.
Converted amounts (≈) assume the structure as drawn. “And” between values parts separate entries of the source, which are not always exact repeats. Identical values can stand only once. Each block holds one molecule with its values, some of them ahead of it.

Legend:
Experiment in all cases: ≥ marks a high value that may be exact or a test limit, other limits are often not marked, values filed in µg/mL are converted to µM
[1] = tested on: Escherichia coli 55B5
[2] = tested on: Escherichia coli UB1005
[3] = tested on: Pseudomonas aeruginosa
[4] = tested on: Salmonella typhimurium
[5] = tested on: Staphylococcus aureus
[6] = tested on: Bacillus licheniformis X39
[7] = tested on: Enterococcus faecalis 981
[8] = tested on: Escherichia coli ATCC 25922
[9] = tested on: Psychrobacter faecalis X29
[10] = tested on: Rhodococcus rhodochrous X15
[11] = tested on: Serratia rubidaea X01
[12] = tested on: Staphylococcus aureus ATCC 25923
[13] = tested on: Staphylococcus carnosus KHS
[14] = tested on: Acinetobacter baumannii Ab1408
[15] = tested on: Acinetobacter baumannii Ab5753
[16] = tested on: Acinetobacter baumannii Ab5755
[17] = tested on: Acinetobacter calcoaceticus
[18] = tested on: Aspergillus nidulans
[19] = tested on: Aspergillus terreus GIM 3.34
[20] = tested on: Bacillus cereus
[21] = tested on: Bacillus pumilus
[22] = tested on: Bacillus subtilis
[23] = tested on: Candida albicans ATCC 2002
[24] = tested on: Chaetomium globosum
[25] = tested on: Enterococcus faecium
[26] = tested on: Escherichia coli Ec513
[27] = tested on: Escherichia coli K-12
[28] = tested on: Escherichia coli K88
[29] = tested on: Escherichia coli O78
[30] = tested on: Escherichia coli
[31] = tested on: Pseudomonas aeruginosa ATCC 27853
[32] = tested on: Pseudomonas aeruginosa Pa1409
[33] = tested on: Pseudomonas aeruginosa Pa4216
[34] = tested on: Pseudomonas luteola
[35] = tested on: Saccharibacillus kuerlensis
[36] = tested on: Salmonella enterica subsp. enterica serovar Choleraesuis CMCC 50020
[37] = tested on: Salmonella enterica subsp. enterica serovar Enteritidis CMCC 50041
[38] = tested on: Salmonella enterica subsp. enterica serovar Typhi
[39] = tested on: Salmonella typhimurium CMCC 50013
[40] = tested on: Serratia marcescens MA
[41] = tested on: Serratia marcescens SA
[42] = tested on: Sphingobacterium siyangense
[43] = tested on: Staphylococcus aureus 08031002
[44] = tested on: Staphylococcus aureus 08031013
[45] = tested on: Staphylococcus aureus 08032706
[46] = tested on: Staphylococcus aureus 08032712
[47] = tested on: Staphylococcus aureus 08032810
[48] = tested on: Staphylococcus aureus 08A865
[49] = tested on: Staphylococcus aureus 08A875
[50] = tested on: Staphylococcus aureus ATCC 2592
[51] = tested on: Staphylococcus aureus Sa1390
[52] = tested on: Staphylococcus epidermidis ATCC 12228
[53] = tested on: Staphylococcus aureus 930918-3
[54] = tested on: Staphylococcus aureus ATCC 33591

MIC [1]: 1.8 µM (≈ 4.47 µg/mL)
MIC [2]: 2.1 µM (≈ 5.21 µg/mL)
MIC [3]: 3 µM (≈ 7.44 µg/mL)
MIC [4]: 4.8 µM (≈ 11.9 µg/mL)
MIC [5]: 55 µM (≈ 136 µg/mL)
SMILES: CC[C@H](C)[C@H](NC(=O)[C@H](C)N)C(=O)N[C@@H](Cc1cnc[nH]1)C(=O)N[C@@H](CC(N)=O)C(=O)N[C@@H](CC(C)C)C(=O)N[C@@H](C)C(=O)N[C@@H](Cc1cnc[nH]1)C(=O)N[C@@H](CCCCN)C(=O)N[C@@H](CC(C)C)C(=O)N[C@@H](CC(C)C)C(=O)N[C@@H](CCCCN)C(=O)N[C@@H](CCCCN)C(=O)N[C@@H](CC(C)C)C(=O)N[C@H](C(=O)N[C@@H](CCCN=C(N)N)C(=O)N[C@@H](C)C(=O)N[C@H](C(=O)N[C@@H](CCCCN)C(=O)N[C@@H](CCCCN)C(=O)N[C@@H](CC(C)C)C(=O)N[C@@H](C)C(=O)N[C@@H](CC(N)=O)C(=O)O)C(C)C)[C@@H](C)O [AIHNLAHKLLKKLTRAVKKLAN]

MIC [6]: 9 µM (≈ 23.4 µg/mL)
MIC [7]: ≥ 75 µM
MIC [8]: 150 µM (≈ 391 µg/mL)
MIC [9]: 4.5 µM (≈ 11.7 µg/mL)
MIC [10]: 2.3 µM (≈ 5.99 µg/mL)
MIC [11]: 9 µM (≈ 23.4 µg/mL)
MIC [12]: 19 µM (≈ 49.5 µg/mL)
MIC [13]: 19 µM (≈ 49.5 µg/mL)
SMILES: CC[C@H](C)[C@H](NC(=O)[C@H](CC(C)C)NC(=O)[C@@H](NC(=O)[C@@H]1CCCN1C(=O)[C@@H](NC(=O)[C@@H](NC(=O)[C@H](CC(N)=O)NC(=O)[C@H](CO)NC(=O)[C@H](C)NC(=O)[C@@H](NC(=O)[C@H](CC(N)=O)NC(=O)[C@H](CC(C)C)NC(=O)[C@H](CC(C)C)NC(=O)[C@@H](NC(=O)[C@H](CO)NC(=O)[C@H](CC(C)C)NC(=O)[C@@H](N)Cc1ccccc1)[C@@H](C)O)C(C)C)C(C)C)C(C)C)[C@@H](C)O)C(=O)N[C@H]1CSSC[C@@H](C(=O)O)NC(=O)[C@H](CCCCN)NC(=O)[C@H](CCCCN)NC(=O)[C@H]([C@@H](C)O)NC(=O)[C@H]([C@@H](C)CC)NC(=O)[C@H](CCCCN)NC1=O [FLSTLLNVASNVVPTLICKITKKC]

SMILES: CC[C@H](C)[C@H](NC(=O)[C@@H](NC(=O)[C@H](CCCN=C(N)N)NC(=O)[C@@H]1CCCN1C(=O)[C@H](CCCCN)NC(=O)[C@H](CCCCN)NC(=O)[C@H](Cc1ccccc1)NC(=O)[C@H](Cc1ccccc1)NC(=O)[C@H](CCC(=O)O)NC(=O)[C@H](CCCCN)NC(=O)[C@H](C)NC(=O)[C@H](CCCN=C(N)N)NC(=O)[C@H](CCCCN)NC(=O)[C@H](CCCCN)NC(=O)[C@@H](NC(=O)[C@H](CO)NC(=O)[C@H](CCCCN)NC(=O)[C@H](CCCCN)NC(=O)[C@H](CC(C)C)NC(=O)[C@H](CCCCN)NC(=O)[C@H](CCCN=C(N)N)NC(=O)[C@H](Cc1ccccc1)NC(=O)[C@H](Cc1ccccc1)NC(=O)[C@@H](N)CCCCN)C(C)C)C(C)C)C(=O)NCC(=O)N[C@H](C(=O)N[C@@H](CO)C(=O)N[C@H](C(=O)N1CCC[C@H]1C(=O)N[C@@H](Cc1ccccc1)C(=O)O)[C@@H](C)CC)C(C)C [KFFRKLKKSVKKRAKEFFKKPRVIGVSIPF]
MIC [14]: 4.4 µM (≈ 16 µg/mL)
MIC [15]: 4.4 µM (≈ 16 µg/mL)
MIC [16]: 1.1 µM (≈ 4 µg/mL)
MIC [17]: 0.632 µM (≈ 2.3 µg/mL)
MIC [18]: 5.14 µM (≈ 18.7 µg/mL)
MIC [19]: 5.14 µM (≈ 18.7 µg/mL)
MIC [20]: 0.33 µM (≈ 1.2 µg/mL)
MIC [21]: 2.58 µM (≈ 9.4 µg/mL)
MIC [22]: 2.58 µM (≈ 9.4 µg/mL)
MIC [23]: 1.29 µM and 0.66 µM
MIC [24]: 10.3 µM (≈ 37.5 µg/mL)
MIC [25]: ≥ 41.2 µM
MIC [8]: 0.632 µM (≈ 2.3 µg/mL)
MIC [26]: 2.2 µM (≈ 8 µg/mL)
MIC [27]: 0.275 µM (≈ 1 µg/mL)
MIC [28]: 1.1 µM (≈ 4 µg/mL)
MIC [29]: 4.4 µM (≈ 16 µg/mL)
MIC [30]: 0.323 µM (≈ 1.17 µg/mL)
MIC [31]: 0.33 µM and > 0.165 µM
MIC [32]: 2.2 µM (≈ 8 µg/mL)
MIC [33]: 1.1 µM (≈ 4 µg/mL)
MIC [3]: 3.64 µM (≈ 13.3 µg/mL)
MIC [34]: 0.33 µM (≈ 1.2 µg/mL)
MIC [35]: 1.29 µM (≈ 4.7 µg/mL)
MIC [36]: 0.55 µM (≈ 2 µg/mL)
MIC [37]: 1.1 µM (≈ 4 µg/mL)
MIC [38]: 0.33 µM (≈ 1.2 µg/mL)
MIC [39]: 1.1 µM (≈ 4 µg/mL)
MIC [40]: ≥ 110 µM
MIC [41]: ≥ 110 µM
MIC [42]: 2.58 µM (≈ 9.4 µg/mL)
MIC [43]: 27.5 µM (≈ 100 µg/mL)
MIC [44]: 27.5 µM (≈ 100 µg/mL)
MIC [45]: 27.5 µM (≈ 100 µg/mL)
MIC [46]: 27.5 µM (≈ 100 µg/mL)
MIC [47]: 27.5 µM (≈ 100 µg/mL)
MIC [48]: ≥ 110 µM
MIC [49]: 20.6 µM (≈ 75 µg/mL)
MIC [12]: 1.1 µM (≈ 4 µg/mL)
MIC [50]: 1.29 µM and 0.66 µM
MIC [51]: ≥ 35.2 µM
MIC [52]: 2.2 µM (≈ 8 µg/mL)

MIC [53]: 0.95 µM and 1.17 µM
MIC [54]: ≥ 130 µM
SMILES: CC[C@H](C)[C@H](NC(=O)[C@H](CCCCN)NC(=O)[C@H](CCCCN)NC(=O)[C@H](CC(C)C)NC(=O)[C@H](CCCCN)NC(=O)[C@H](CCC(=O)O)NC(=O)[C@H](CCCCN)NC(=O)[C@@H](NC(=O)[C@H](CCCCN)NC(=O)[C@H](CC(N)=O)NC(=O)[C@H](CCCN=C(N)N)NC(=O)[C@H](Cc1ccccc1)NC(=O)[C@H](CCCCN)NC(=O)[C@@H](N)CCCN=C(N)N)[C@@H](C)CC)C(=O)NCC(=O)O [RKFRNKIKEKLKKIG]
